Laboratory results: patent US10017509B2, “Macrocylic pyrimidine derivatives” (Janssen Pharmaceutica NV, priority 2014, dated 2018)

Columns and labels:
[1] = target: T1, EF2K (Homo sapiens, UniProt O00418); assay: Biochemical EF2K lysate-based kinase assay (AlphaLISA p-eEF2 Thr56); conditions: pIC50 = -log IC50 (M), read-out: eEF2K_C_alphalisa pIC50 (converted)
T1 construct: host or cells: LN-229 cell lysate
T1 sequence (O00418 1-725): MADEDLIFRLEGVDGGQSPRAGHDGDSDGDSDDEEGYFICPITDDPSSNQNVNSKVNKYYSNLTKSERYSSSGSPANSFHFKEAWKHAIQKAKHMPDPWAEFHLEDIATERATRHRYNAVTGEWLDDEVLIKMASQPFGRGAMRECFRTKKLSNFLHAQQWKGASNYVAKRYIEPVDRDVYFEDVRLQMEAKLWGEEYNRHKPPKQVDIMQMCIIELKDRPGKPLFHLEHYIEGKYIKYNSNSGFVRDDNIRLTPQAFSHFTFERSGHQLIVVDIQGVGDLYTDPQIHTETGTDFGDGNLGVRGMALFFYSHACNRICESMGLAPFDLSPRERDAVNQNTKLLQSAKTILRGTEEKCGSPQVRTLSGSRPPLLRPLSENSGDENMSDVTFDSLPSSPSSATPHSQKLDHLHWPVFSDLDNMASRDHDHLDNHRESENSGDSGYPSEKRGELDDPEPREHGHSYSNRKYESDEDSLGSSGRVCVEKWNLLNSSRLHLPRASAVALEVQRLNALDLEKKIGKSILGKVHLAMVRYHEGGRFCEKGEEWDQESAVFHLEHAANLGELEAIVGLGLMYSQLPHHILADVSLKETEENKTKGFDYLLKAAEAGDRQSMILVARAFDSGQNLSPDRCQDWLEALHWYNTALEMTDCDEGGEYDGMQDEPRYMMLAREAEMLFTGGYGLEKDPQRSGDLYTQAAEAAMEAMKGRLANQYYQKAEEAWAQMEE
From the text: Biochemical EF2K Lysate-Based Kinase Assay
LN-229 cells were purchased from ATCC (CRL-2611); these are glioblastoma cells. Cell lysates from LN229 were used in this kinase assay to provide both the kinase and the substrate (EF2). The AlphaLISA p-eEF2 (Thr56) detection assay was developed using a sandwich assay format with two specific antibodies recognizing different epitopes of the target, including one antibody against the phosphorylation site of interest. One anti-eEF2 antibody was conjugated onto AlphaLISA Acceptor beads, while the second antibody was biotinylated and captured by streptavidin coated Donor beads.
Compound was mixed with LN-229 cell lysates in the presence of a kinase buffer (e.g. HEPES) at a pH of 6.6, containing 10 mM Mg^2+ (e.g. magnesium acetate) and 10 mM adenosine-tri-phosphate (ATP) and incubated at room temperature for 15 minutes. The kinase reaction was stopped with excess ethylenediaminetetraacetic acid disodium salt and the biotinylated-anti phospho eEF2 antibody (3 nM) was added for 1 hour. Then the anti-EF2 acceptor beads (10 μg/ml) as well as the streptavidin coated donor beads (20 μg/ml) were added for 1 hour, and the AlphaLISA signal was measured in an Envision instrument once, left overnight, and measured again for the final read.
(§1) (pIC50 is −log IC50 where IC50 represents the concentration expressed in M at which the test compound gives 50% inhibition)

[2] = target: T1, EF2K; assay: EF2K cell-based assay (P-EF2 AlphaLISA, 2-deoxyglucose stimulated MCF10A cells); conditions: 2.5 mM 2-deoxyglucose stimulated, P-EF2 Thr56, pIC50 = -log IC50 (M), read-out: eEF2K_C_PThr56 pIC50 (converted)
Description: In this assay, 2.5 mM 2-deoxyglucose was used to deplete intracellular ATP and activate 5′ adenosine monophosphate-activated protein kinase (AMPK) in the immortalized epithelial breast cell lines, MCF10A. MCF 10A cells were purchased from ATCC (CRL-10317).
MCF10A cells are seeded at a density of 1.25×10^5 Cells/ml at 100 μl/well in a 96-well plate and incubated for 24 hours (37° C., 5% CO2). Compound is added for 1 hour, and cell are stimulated with 2.5 mM of 2-deoxy-glucose for 4 hours. Medium is then removed, and cells are lysed in an ice-cold buffer M-PER (Thermo Scientific, 78501), containing protease and phosphatase inhibitors. P-EF2 levels are determined in these lysates using the P-EF2 AlphaLISA described above.
as §1

[3] = target: Vps34 (PIK3C3 lipid kinase) (Homo sapiens, UniProt Q8NEB9); assay: Biochemical Vps34 lipid kinase assay (ADP-Glo); conditions: for IC50: serial half-log dilution 10 μM to 0.3 nM, pIC50 = -log IC50 (M); for remaining activity at 1 µM: 1 h, read-out: VPS34_1microM_% of cntrl
Description: Biochemical Vps34 Lipid Kinase Assay
A non-radiometric kinase assay (ADP-Glo™ Assay, Promega, Madison, Wi, USA) was used for measuring the kinase activity of the PIK3C3 lipid kinase. All kinase assays were performed in 96-well half-area microtiter plates in a 25 μl reaction volume. The reaction cocktail was pipetted in 3 steps in the following order: • 10 μl of ATP solution (in assay buffer, see below) • 5 μl of test sample in 5% DMSO 10 μl of enzyme/substrate mixture
All lipid kinase assays contained 50 mM HEPES (4-(2-hydroxyethyl)-1-piperazineethanesulfonic acid)-NaOH, pH 7.5, 1 mM EGTA ((ethylene glycol tetraacetic acid), 100 mM NaCl, 0.03% CHAPS (3-[(3-Cholamidopropyl)dimethylammonio]-1-propanesulfonate), 2 mM DTT (Dithiothreitol), 20 μM ATP (corresponding to the apparent ATP-Km), kinase (7.6 nM) and substrate (50 μM). The assay for PIK3C3 additionally contained 3 mM MnCl2.
The reaction cocktails were incubated at 30° C. for 60 minutes. The reaction was stopped with 25 μl ADP-Go™ reagent per well. Plates were incubated for 40 minutes at room temperature, followed by addition of 50 μl kinase detection reagent per well and incubation for 60 minutes at room temperature. Signal was determined with a microplate luminescence reader (Victor, Perkin Elmer). The assay was either performed using a single dose of compound (1 μM final concentration in the assay reaction) with resulting data expressed as residual activity compared to control (DMSO), or using a serial (half-log) dilution of compounds starting at 10 μM and down to 0.3 nM (final concentrations in the assay) with data expressed as the pIC50.
as §1

[4] = single dose 1 μM compound, residual activity compared to control (DMSO)

Sequence of Vps34 (PIK3C3 lipid kinase) (Q8NEB9 whole entry, species assumed): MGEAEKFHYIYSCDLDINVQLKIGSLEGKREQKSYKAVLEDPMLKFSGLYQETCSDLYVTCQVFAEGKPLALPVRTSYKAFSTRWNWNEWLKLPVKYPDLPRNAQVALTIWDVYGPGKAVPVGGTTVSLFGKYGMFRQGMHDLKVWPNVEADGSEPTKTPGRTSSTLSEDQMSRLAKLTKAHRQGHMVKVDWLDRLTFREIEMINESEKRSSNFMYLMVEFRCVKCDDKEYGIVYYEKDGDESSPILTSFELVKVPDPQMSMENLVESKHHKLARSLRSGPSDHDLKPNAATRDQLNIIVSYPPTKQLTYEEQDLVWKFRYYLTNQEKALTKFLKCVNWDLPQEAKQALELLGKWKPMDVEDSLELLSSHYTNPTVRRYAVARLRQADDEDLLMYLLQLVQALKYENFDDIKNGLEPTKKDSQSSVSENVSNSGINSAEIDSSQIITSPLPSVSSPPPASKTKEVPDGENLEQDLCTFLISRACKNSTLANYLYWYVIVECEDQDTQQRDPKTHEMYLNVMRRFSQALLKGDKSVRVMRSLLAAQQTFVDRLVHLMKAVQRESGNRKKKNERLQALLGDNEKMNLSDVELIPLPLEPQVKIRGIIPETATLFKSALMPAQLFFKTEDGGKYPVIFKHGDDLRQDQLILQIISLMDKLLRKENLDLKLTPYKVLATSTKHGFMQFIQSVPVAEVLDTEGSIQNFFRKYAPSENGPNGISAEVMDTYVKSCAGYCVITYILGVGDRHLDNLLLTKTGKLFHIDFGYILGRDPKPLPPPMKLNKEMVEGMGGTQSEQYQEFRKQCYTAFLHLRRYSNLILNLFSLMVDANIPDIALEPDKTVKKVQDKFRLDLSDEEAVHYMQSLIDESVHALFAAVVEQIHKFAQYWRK

SMILES | IC50 [1] | IC50 [2] | IC50 [3] | remaining activity at 1 µM [3, 4] | VPS34_1microM_% of cntrl [3, 4]
CN1CCCN(C)c2ccc(cn2)-c2ccnc(n2)Nc2cccc(c2)CN2CCN(CC2)CC1=O [Compound 1] | 7.59e-08 M | 2.95e-06 M | 1.55e-06 M | – | –
O=C1CN2CCN(CC2)Cc2cc(ccc2F)Nc2nccc(n2)-c2ccc(nc2)NCCCN1 [Compound 2] | 6.31e-08 M | 5.75e-06 M | 1e-07 M | 4.44% | –
O=C1CN2CCN(CC2)Cc2ccc(F)c(c2)Nc2nccc(n2)-c2ccc(nc2)NCCCN1 [Compound 3] | 1.66e-06 M | > 3.02e-05 M | 6.76e-08 M | 4.43% | –
O=C1CN2CCN(CC2)Cc2cccc(c2F)Nc2nccc(n2)-c2ccc(nc2)NCCCN1 [Compound 4] | 8.32e-08 M | 8.71e-06 M | 4.79e-07 M | 29.3% | –
O=C1CN2CCN(CC2)Cc2cc(F)cc(c2)Nc2nccc(n2)-c2ccc(nc2)NCCCN1 [Compound 5] | 7.59e-07 M | 2.51e-05 M | 6.92e-08 M | 7.3% | –
CN1CCCN(C)c2ccc(cn2)-c2ccnc(n2)Nc2cc(F)cc(c2)CN2CCN(CC2)CC1=O [Compound 6] | 6.61e-07 M | 2.45e-05 M | 2.51e-07 M | 17.4% | –
Cc1cc2cc(c1)Nc1nccc(n1)-c1ccc(nc1)NCCCNC(=O)CN1CCN(CC1)C2 [Compound 7] | 1.38e-05 M | > 3.02e-05 M | 1.58e-07 M | 15.1% | –
Cc1cc2cc(c1)Nc1nccc(n1)-c1ccc(nc1)N(C)CCCN(C)C(=O)CN1CCN(CC1)C2 [Compound 8] | 1.41e-05 M | > 3.02e-05 M | – | 41.1% | –
O=C1CN2CCN(CC2)Cc2cc(Cl)cc(c2)Nc2nccc(n2)-c2ccc(nc2)NCCCN1 [Compound 9] | ~6.03e-06 M | > 3.02e-05 M | 9.77e-08 M | 8.43% | –
CN1CCCN(C)c2ccc(cn2)-c2ccnc(n2)Nc2ccc(C(N)=O)c(c2)CN2CCN(CC2)CC1=O [Compound 10] | 3.63e-07 M | 1.29e-05 M | 2.88e-07 M | 10.8% | –
CN1CCCN(C)c2ccc(cn2)-c2ccnc(n2)Nc2ccc(C(=O)O)c(c2)CN2CCN(CC2)CC1=O [Compound 11] | 4.57e-07 M | > 3.02e-05 M | – | 33.3% | –
CNC(=O)c1ccc2cc1CN1CCN(CC1)CC(=O)N(C)CCCN(C)c1ccc(cn1)-c1ccnc(n1)N2 [Compound 12] | 2.09e-07 M | 1.05e-05 M | 4.37e-07 M | 7.68% | –
CNC(=O)c1ccc2cc1CN1CCN(CC1)CC(=O)NCCCNc1ccc(cn1)-c1ccnc(n1)N2 [Compound 13] | 3.98e-07 M | 6.76e-06 M | 8.71e-08 M | 9% | –
N#Cc1ccc2cc1CN1CCN(CC1)CC(=O)NCCCNc1ccc(cn1)-c1ccnc(n1)N2 [Compound 14] | 7.08e-08 M | 7.59e-06 M | 1.05e-07 M | 3.37% | –
NC(=O)c1ccc2cc1CN1CCN(CC1)CC(=O)NCCCNc1ccc(cn1)-c1ccnc(n1)N2 [Compound 15] | 6.03e-07 M | 2.75e-05 M | 5.01e-08 M | 1.07% | –
O=C1CN2CCN(CC2)Cc2cc(ccc2C(=O)O)Nc2nccc(n2)-c2ccc(nc2)NCCCN1 [Compound 16] | 2.04e-06 M | > 3.02e-05 M | 3.63e-07 M | 15.9% | –
CN(C)C(=O)c1ccc2cc1CN1CCN(CC1)CC(=O)N(C)CCCN(C)c1ccc(cn1)-c1ccnc(n1)N2 [Compound 17] | 1.1e-06 M | > 3.02e-05 M | – | 39.5% | –
CN(C)C(=O)c1ccc2cc1CN1CCN(CC1)CC(=O)NCCCNc1ccc(cn1)-c1ccnc(n1)N2 [Compound 18] | 1.91e-06 M | > 3.02e-05 M | 9.12e-07 M | 23.4% | –
Cc1c2cccc1Nc1nccc(n1)-c1ccc(nc1)NCCCNC(=O)CN1CCN(CC1)C2 [Compound 19] | ~1.58e-06 M | > 3.02e-05 M | – | 87.1% | –
CN1CCCCN(C)c2ccc(cn2)-c2ccnc(n2)Nc2cccc(c2)CN2CCN(CC2)CC1=O [Compound 20] | 1.82e-06 M | > 3.02e-05 M | 1.62e-07 M | 8.85% | –
CC(C)N1CCNc2ccc(cn2)-c2ccnc(n2)Nc2cccc(c2)CN2CCN(CC2)CC1=O [Compound 21] | 1.1e-06 M | 8.71e-06 M | 5.01e-07 M | 23.6% | –
CC(C)N1CCCNc2ccc(cn2)-c2ccnc(n2)Nc2cccc(c2)CN2CCN(CC2)CC1=O [Compound 22] | 7.24e-06 M | > 3.02e-05 M | 6.17e-06 M | 17.3% | –
O=C1CN2CCN(CC2)Cc2cccc(c2)Nc2nccc(n2)-c2ccc(nc2)NCC(O)CN1 (stereo not drawn) [Compound 23] | 5.01e-07 M | 2.24e-05 M | 1.51e-07 M | 7.45% | –
O=C1CN2CCN(CC2)Cc2cccc(c2)Nc2nccc(n2)-c2ccc(nc2)N2CCCC2CN1 (stereo not drawn) [Compound 26] | 1.48e-05 M | > 3.02e-05 M | 1.02e-07 M | – | 5.23 % of cntrl
CN1CCCN(C)c2ccc(cn2)-c2ccnc(n2)Nc2cccc(c2)S(=O)(=O)N2CCN(CC2)CC1=O [Compound 27] | 2.95e-06 M | > 3.02e-05 M | – | 50.7% | –
CN1CCCN(C)c2ccc(cn2)-c2ccnc(n2)Nc2cccc(c2)C(=O)N2CCN(CC2)CC1=O [Compound 28] | ~5.5e-08 M | > 3.02e-05 M | – | 45.6% | –
CN1CCCN(C)c2ccc(cn2)-c2ccnc(n2)Nc2cccc(c2)CCN2CCN(CC2)CC1=O [Compound 29] | 1.74e-05 M | > 3.02e-05 M | 2e-07 M | 5.67% | –
O=C1CN2CCN(CC2)Cc2cccc(c2)Nc2nccc(n2)-c2ccc(nc2)NCCCN1 [Compound 31] | 1.07e-07 M | ~3.98e-06 M | 8.71e-08 M | 8.47% | –
